Reference: US20030096704A1, “Novel use of herbicides” (priority 2000, published 2003)

Key:
[1] = tested on: Rice ATCC 97523 (ALS-inhibitor-resistant rice variety SPCW-1); experiment: Post-emergence herbicidal action on rice (paddy system): phytotoxicity on ALS-inhibitor-resistant rice; format: in vivo, Oryza sativa; details: 8 g/ha, evaluated after about 21 days, 0% no action, 100% plant completely died
Protocol: (§1) Post-emergence Herbicidal Action on Rice:
(§2) Weeds are sown and raised in soil saturated with water in plastics troughs. The rice plants are sown and grown separately from the weeds and after 10 days transplanted into the plastics troughs containing the weeds. The test compounds are then applied to the plants in the form of an aqueous suspension. One day after application, the water level is raised by 3 cm (paddy system).
(§3) The test plants are then grown on in a greenhouse under optimum conditions. […] For comparison with the prior art, the compound sulfometuron-methyl (known from The Pesticide Manual, 10th ed., the British Crop Protection Council, page 931) is tested. Sulfometuron-methyl belongs to the same class of ALS-inhibitors as the compound of formula I. The compound of formula I and sulfometuron-methyl are tested at a rate of application of 8 g/ha.
The ALS-inhibitor-resistant rice variety used is Oryza sativa, Linnaeus name: SPCW-1, deposited under the number ATCC 97523, depositor: Louisiana State Univ.

[2] = tested on: Rice “Lemont” (conventional rice variety); experiment: Post-emergence herbicidal action on rice (paddy system): phytotoxicity on conventional rice; format: in vivo, Oryza sativa; details: 8 g/ha, evaluated after about 21 days, 0% no action, 100% plant completely died
Protocol: as §1, §2, §3
The variety “Lemont” is used as conventional rice variety.

[3] = tested on: Cyperus serotinus (CYPSE); experiment: Post-emergence herbicidal action on rice (paddy system): weed control; format: in vivo; details: 8 g/ha; leaf stage 3, height 11 cm at application; about 21 days
Protocol: as §1, §2, §3

[4] = tested on: Echinochloa crus galli (ECHCG); experiment: as above; format: in vivo; details: 8 g/ha, about 21 days
Protocol: as §1, §2, §3

[5] = tested on: Monochoria vaginalis (MOOVA); experiment: as above; format: in vivo; details: 8 g/ha; leaf stage 2, height 1 cm at application; about 21 days
Protocol: as §1, §2, §3

SMILES: COC(=O)c1ccccc1S(=O)(=O)NC(=O)Nc1nc(C)cc(C)n1 [sulfometuron-methyl]
- % Phytotoxicity Rice ATCC 97523 [1]: 95%
- % Phytotoxicity Rice “Lemont” [2]: 100%
- % Weed control CYPSE [3]: 95%
- % Weed control ECHCG 1 ([4]; Echinochloa crus galli post 1.0 leaf (leaf stage 1.5, height 6 cm at application)): 100%
- % Weed control ECHCG 3 ([4]; Echinochloa crus galli post 3.0 leaf (leaf stage 3, height 25 cm at application)): 98%
- % Weed control MOOVA [5]: 100%
